{
  "source": "patent US11168092B2",
  "about": "(priority 2019, dated 2021)",
  "type_in_all_cases": "cell-based",
  "parameters_in_all_cases": "unit not given here",
  "key": {"[1]": {"system": "skin cancer cells (SK-MEL-2)"}, "lung cancer cells (A549)": {"system": "lung cancer cells (A549)"}, "[2]": {"system": "colorectal cancer cells (HCT15)"}, "[3]": {"system": "ovarian cancer cells (SK-OV-3)"}},
  "note": "Several values for one entry are separate records, joined by “and”; a condition that tells them apart may be missing. Equal values may be shown once.",
  "data": [
    {"smiles": "CC1=CC(=O)OCC23CCC(C)(O)C4CC5(O)C(CC(OC(=O)C=CC=CC(C(C)O)OCC1)C52C)OC43", "note": "[compound 1, (1R,4Z,6E,8R,12E,16aR,19S,20S,20aR,22R,23S,23aS)-19,23-dihydroxy-8-((R)-1-hydroxyethyl)-12,19,23a-trimethyl-10,11,17,18,19,20,20a,22,23,23a-decahydro-1H-1,22:20,23-dimethano[1,6,12]trioxacyclooctadecino[3,4-d]chromene-3,14(8H,16H)-dione]", "values": [
      {"measurement": "Anticancer activity (value at given concentration)", "setting": "[1]", "result": "96.98 and 91.60 and 95.73 and 101.17 and 96.51 and 96.60"},
      {"measurement": "Anticancer activity (value at given concentration)", "setting": "lung cancer cells (A549)", "result": "97.91 and 93.12 and 93.03 and 94.31 and 92.44 and 95.94"},
      {"measurement": "Anticancer activity (value at given concentration)", "setting": "[2]", "result": "103.41 and 91.11 and 101.55 and 101.52 and 102.70 and 101.58"},
      {"measurement": "Anticancer activity (value at given concentration)", "setting": "[3]", "result": "103.77 and 87.76 and 98.54 and 100.24 and 89.90 and 95.08"}
    ]}
  ]
}
